Assay results reported in patent US4939138A, “2- and 3-aminomethyl-6-arylcarbonyl-2,3-dihydropyrrolo(1,2,3-DE)-1,4-benzoxazin es” (Sterling Drug Inc., priority 1989, dated 1990).

Legend:
mouse vas deferens = mouse vas deferens adrenergic transmission test (MVD); settings: for IC50: concentration producing 50% of the maximum response; for MVD percent inhibition: 10 μM
Description: (§1) The test procedures used to determine the analgesic activities of the compounds have been described in detail in the prior art and are as follows: The acetylcholine-induced abdominal constriction test, which is a primary analgesic screening test designed to measure the ability of a test agent to suppress acetylcholine-induced abdominal constriction in mice, described by Collier et al., Brit. J. Pharmacol. Chemotherap. 32, 295 (1968); a modification of the anti-bradykinin test, which is also a primary analgesic screening procedure, described by Berkowitz et al., J. Pharmacol. Exptl Therap. 177, 500-508 (1971), Blane et al., J. Pharm. Pharmacol 19, 367-373 (1967), Botha et al., Eur. J. Pharmacol. 6, 312-321 (1969) and Deffenu et al., J. Pharm. Pharmacol. 18, 135 (1966); the rat paw flexion test, described by Kuzuna et al., Chem. Pharm. Bull., 23, 1184-1191 (1975), Winter et al., J. Pharm. Exptl. Therap., 211, 678-685 (1979) and Capetola et al., J. Pharm. Exptl. Therap. 214, 16-23 (1980); and the mouse vas deferens adrenergic transmission test, described by Henderson et al., Brit. J. Pharmacol., 46, 764-766 (1972).
As before, the compounds are identified by the example number above where their preparations are described.

[1] = system: acetylcholine-induced abdominal constriction; experiment: acetylcholine-induced abdominal constriction test (ACH); assay type: in vivo, mice; settings: for ACH percent inhibition: p.o.
Description: as §1
In the acetylcholine-induced abdominal constriction test, the test compounds were administered either as suspensions in gum tragacanth (GT) or as aqueous solutions prepared by addition of just sufficient dilute aqueous methanesulfonic acid (MS) or dilute aqueous lactic acid (LA) to dissolve the compound The compounds are identified by the example number above where their preparations are described All data in the anti-bradykinin, rat writhing and Randall-Selitto tests were obtained on oral administration.

[2] = dose level 100, suspension in gum tragacanth (GT)

Compound	IC50 (mouse vas deferens) [nM]	further results
COc1ccc(C(=O)c2c(C)n3c4c(cccc24)OCC3CN2CCOCC2)cc1 (single isomer, unassigned; (+)) [2H(d)]	44 ± 13	
Cc1c(C(=O)c2cccc3c(Br)cc(Br)cc23)c2cccc3c2n1C(CN1CCOCC1)CO3 (single isomer, unassigned; (+)) [Example 2G, (+)-3-(4-morpholinylmethyl)-5-methyl-6-(5,7-dibromo-1-naphthylcarbonyl)-2,3-dihydropyrrolo[1,2,3-de]-1,4-benzoxazine]	40 ± 5.4	
COc1ccc(C(=O)c2c(C)n3c4c(cccc24)OCC3CN2CCOCC2)cc1 (single isomer, unassigned; (-)) [2H(1), (-)-3-(4-morpholinylmethyl)-5-methyl-6-(4-methoxybenzoyl) -2,3-dihydropyrrolo[1,2,3-de]-1,4-benzoxazine]	> 10000	MVD percent inhibition (mouse vas deferens): 44%
Cc1c(C(=O)c2cccc3ccccc23)c2cccc3c2n1C(CN1CCOCC1)CO3 (stereo not shown) [1B (CH3 SO3 H), 3-(4-morpholinylmethyl)-5-methyl-6-(1-naphthylcarbonyl)-2,3-dihydropyrrolo1,2,3-de]-1,4-benzoxazine methanesulfonate]	6 ± 0.6	
Cc1c(C(=O)c2cccc3ccccc23)c2cccc3c2n1C(CN1CCOCC1)CO3 (stereo not shown) [1B (base)]	4 ± 2	
CCc1c(C(=O)c2ccc(OC)cc2)c2cccc3c2n1C(CN1CCOCC1)CO3 (stereo not shown) [Example 2A, 3-(4-morpholinylmethyl)-5-ethyl-6-(4-methoxybenzoyl)-2,3-dihydropyrrolo[1,2,3-de]-1,4-benzoxazine]	> 10000	MVD percent inhibition (mouse vas deferens): 27%; ACH percent inhibition [1, 2]: 20%
CS(=O)(=O)O.Cc1c(C(=O)c2ccccc2F)c2cccc3c2n1C(CN1CCOCC1)CO3 (stereo not shown) [Example 2D, 3-(4-morpholinylmethyl)-5-methyl-6-(2-fluorobenzoyl)-2,3-dihydropyrrolo[1,2,3-de]-1,4-benzoxazine methanesulfonate]	76 ± 4	ED50 ([1]; Mus musculus, iv): 2 mg/kg; ACH percent inhibition ([1]; dose level 100, aqueous methanesulfonic acid (MS)): 30%
CS(=O)(=O)O.Cc1c(C(=O)c2ccc(Br)c3ccccc23)c2cccc3c2n1C(CN1CCOCC1)CO3 (stereo not shown) [Example 2E, 3-(4-morpholinylmethyl)-5-methyl-6-(4-bromo-1-naphthylcarbonyl)-2,3-dihydropyrrolo[1,2,3-de]-1,4-benzoxazine methanesulfonate]	2.2 ± 0.2	ACH percent inhibition ([1]; dose level 100, aqueous lactic acid (LA)): 0%; ACH percent inhibition [1, 2]: 35%
O=C(c1cccc2ccccc12)c1cn2c3c(cccc13)OCC2CN1CCOCC1 (stereo not shown) [Example 2F]	2 ± 0.03	ACH percent inhibition [1, 2]: 10%
Cc1c(C(=O)c2cccc3ccccc23)c2cccc3c2n1CC(CN1CCOCC1)O3 (stereo not shown) [Example 2I, 2-(4-morpholinylmethyl)-5-methyl-6-(1-naphthylcarbonyl-2,3-dihydropyrrolo1,2,3-de]-1,4-benzoxazine]	4 ± 2	
(-)-3-(4-morpholinylmethyl)-5-methyl-6-(5,7-dibromonaphthylcarbonyl)-2,3-dihydropyrrolo[1,2,3-de]-1,4-benzoxazine methanesulfonate [Example 1E]	2620 ± 1700	
